These results are taken from patent US20050197338A1, “Substituted pyrazole urea compounds for the treatment of inflammation” (priority 2003, published 2005).

SMILES strings stand for the structures. A value given as a limit tells only on which side of the number the result lay.

The target of the assay is T1, human IKK-2 (rhIKK-2 homodimer) (Homo sapiens, UniProt O14920).
T1 construct: FLAG (DYKDDDDKD) (C); made in house; host or cells: insect cells (baculovirus, pFastBac)
T1 sequence (O14920 1-756): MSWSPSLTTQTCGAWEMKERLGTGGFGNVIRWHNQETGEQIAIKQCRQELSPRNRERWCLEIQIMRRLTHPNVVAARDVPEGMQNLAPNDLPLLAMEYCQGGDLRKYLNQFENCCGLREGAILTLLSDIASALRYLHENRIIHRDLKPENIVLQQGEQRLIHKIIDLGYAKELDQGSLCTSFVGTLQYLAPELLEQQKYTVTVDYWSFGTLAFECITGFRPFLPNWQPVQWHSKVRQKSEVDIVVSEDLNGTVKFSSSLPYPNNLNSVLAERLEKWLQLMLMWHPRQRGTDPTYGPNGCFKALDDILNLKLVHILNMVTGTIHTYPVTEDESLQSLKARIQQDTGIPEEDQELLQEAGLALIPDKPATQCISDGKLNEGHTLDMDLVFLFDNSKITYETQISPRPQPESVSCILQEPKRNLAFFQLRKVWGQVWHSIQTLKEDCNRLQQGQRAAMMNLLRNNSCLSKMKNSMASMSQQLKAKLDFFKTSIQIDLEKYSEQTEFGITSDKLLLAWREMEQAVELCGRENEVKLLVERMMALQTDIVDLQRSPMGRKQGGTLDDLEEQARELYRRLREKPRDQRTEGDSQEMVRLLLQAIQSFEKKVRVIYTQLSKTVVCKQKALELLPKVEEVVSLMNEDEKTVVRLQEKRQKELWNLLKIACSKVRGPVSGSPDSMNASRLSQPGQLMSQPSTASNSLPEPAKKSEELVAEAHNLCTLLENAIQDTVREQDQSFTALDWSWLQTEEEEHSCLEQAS
Briefly: IKK-2 Resin Enzyme Assay (Human IKK-2 Enzyme Assay). Format: biochemical. As to conditions: human IKK-2, resin enzyme assay; read-out: IC50 (μM) hIKK-2. Put shortly: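 C-terminally FLAG-tagged human IKK-2 homodimer, baculovirus-expressed in insect cells and anti-FLAG purified. Reaction mix: 5 μM biotinylated IκBα peptide (Ser32/Ser36 region), 1 μM ATP with [γ-33P]ATP, 2 mM MgCl2, 2 mM MnCl2, 10 mM NaF, 1 mM DTT, 25 mM HEPES pH 7.6. Incubated 30 min at 25 °C; IC50 derived.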

The term IC50 denotes the concentration that gives 50% inhibition. On to `CC(C)CCSc1ccc(-n2cc(NC(N)=O)c(C(N)=O)n2)cc1` [Example 291, 1-(3-carbamoyl-1-(4-(isopentylthio)phenyl)-1H-pyrazol-4-yl)urea], for which the half-maximal inhibitory concentration (IC50) was 6.23 µM.

For the compound `NC(=O)Nc1cn(-c2ccc(C(=O)N3CCCCC3)cc2)nc1C(N)=O` [Example 303, 4-[(aminocarbonyl)amino]-1-[4-(piperidin-1-ylcarbonyl)phenyl]-1H-pyrazole-3-carboxamide], the IC50 turned out to be 1.4 µM.

Take `NC(=O)Nc1cn(-c2ccc(B(O)O)cc2)nc1C(N)=O` [Example 337, 4-{3-(aminocarbonyl)-4-[(aminocarbonyl)amino]-1H-pyrazol-1-yl}phenylboronic acid]: the half-inhibitory concentration (IC50) is 0.75 µM.

In the case of `Cc1noc(C)c1-c1cccc(-n2cc(NC(N)=O)c(C(N)=O)n2)c1` [Example 70, 4-[(aminocarbonyl)amino]-1-[3-(3,5-dimethylisoxazol-4-yl)phenyl]-1H-pyrazole-3-carboxamide], the IC50 was found to be 0.88 µM.

As for `Cc1cc(S(=O)(=O)c2ccc(F)cc2)ccc1-n1cc(NC(N)=O)c(C(N)=O)n1` [Example 229, 4-[(aminocarbonyl)amino]-1-{4-[(4-fluorophenyl)sulfonyl]-2-methylphenyl}-1H-pyrazole-3-carboxamide], the IC50 is 2.19 µM.

Take `NC(=O)Nc1nn(-c2ccc(-c3ccc4ccccc4c3)cc2)cc1C(N)=O` [Example 123]: the IC50 was greater than 20 µM.

For the compound `NC(=O)Nc1cn(-c2cccc(-c3cccc(Cl)c3)c2)nc1C(N)=O` [Example 347, 4-[(aminocarbonyl)amino]-1-(3′-chloro-1,1′-biphenyl-3-yl)-1H-pyrazole-3-carboxamide], the IC50 was greater than 20 µM.

For the compound `NC(=O)Nc1cn(-c2ccc(-c3ccc(CN4CCOCC4)cc3)cc2)nc1C(N)=O` [Example 34, 4-[(aminocarbonyl)amino]-1-[4′-(morpholin-4-ylmethyl)-1,1′-biphenyl-4-yl]-1H-pyrazole-3-carboxamide], the IC50 was 4.21 µM.

On to `NC(=O)Nc1cn(-c2cccc(-c3ccc(-c4ccccc4)cc3)c2)nc1C(N)=O` [Example 373, 4-[(aminocarbonyl)amino]-1-(1,1′:4′,1″-terphenyl-3-yl)-1H-pyrazole-3-carboxamide], for which the 50% inhibitory concentration (IC50) was greater than 20 µM.

Consider `CNC(=O)Nc1cn(-c2ccc(I)c(C)c2)nc1C(N)=O` [Example 245, 1-(4-Iodo-3-methyl-phenyl)-4-(3-methyl-ureido)-1H-pyrazole-3-carboxylic acid amide], for which the half-maximal inhibitory concentration (IC50) was 5.51 µM.

For the compound `NC(=O)Nc1cn(-c2cccc(-c3cccc(CO)c3)c2)nc1C(N)=O` [Example 49, 4-[(aminocarbonyl)amino]-1-[3′-(hydroxymethyl)-1,1′-biphenyl-3-yl]-1H-pyrazole-3-carboxamide], the IC50 was 2.48 µM.

As for `NC(=O)Nc1cn(-c2ccc(-c3ccccc3O)c(C(F)(F)F)c2)nc1C(N)=O` [Example 234, 4-[(aminocarbonyl)amino]-1-[2′-hydroxy-2-(trifluoromethyl)-1,1′-biphenyl-4-yl]-1H-pyrazole-3-carboxamide], the half-maximal inhibitory concentration (IC50) is 1.71 µM.

Take `N#CCc1ccc(-c2cccc(-n3cc(NC(N)=O)c(C(N)=O)n3)c2)cc1` [Example 44, 4-[(aminocarbonyl)amino]-1-[4′-(cyanomethyl)-1,1′-biphenyl-3-yl]-1H-pyrazole-3-carboxamide]: the half-maximal inhibitory concentration (IC50) turned out to be 2.08 µM.

As for `NC(=O)Nc1cn(-c2ccc(-c3ccc(C(N)=O)c(F)c3)cc2)nc1C(N)=O` [Example 183, 4-[(aminocarbonyl)amino]-1-[4′-(aminocarbonyl)-3′-fluoro-1,1′-biphenyl-4-yl]-1H-pyrazole-3-carboxamide], the IC50 is 0.13 µM.

For `CC(C)Cc1ccc(-c2cccc(-n3cc(NC(N)=O)c(C(N)=O)n3)c2)cc1` [Example 363, 4-[(aminocarbonyl)amino]-1-(4′-isobutyl-1,1′-biphenyl-3-yl)-1H-pyrazole-3-carboxamide], the IC50 is greater than 20 µM.

With `CSc1ccc(-c2cccc(-n3cc(NC(N)=O)c(C(N)=O)n3)c2)cc1` [Example 358, 4-[(aminocarbonyl)amino]-1-[4′-(methylthio)-1,1′-biphenyl-3-yl]-1H-pyrazole-3-carboxamide], the IC50 was found to be 8.57 µM.

In the case of `CCc1ccc(-c2cccc(-n3cc(NC(N)=O)c(C(N)=O)n3)c2)cc1` [Example 342, 4-[(aminocarbonyl)amino]-1-(4′-ethyl-1,1′-biphenyl-3-yl)-1H-pyrazole-3-carboxamide], the half-maximal inhibitory concentration (IC50) is greater than 20 µM.

`NC(=O)Nc1cn(-c2cc(Cl)ccc2F)nc1C(N)=O` [Example 246, 1-(5-chloro-2-fluoro-phenyl)-4-ureido-1H-pyrazole-3-carboxylic acid amide]: the IC50 is 3.3 µM.

With `NC(=O)Nc1cn(-c2cccc(I)c2)nc1C(N)=O` [Example 195, 1-(3-carbamoyl-1-(3-iodophenyl)-1H-pyrazol-4-yl)urea], the IC50 stood at 0.387 µM.

For `NC(=O)Nc1cn(-c2ccc(-c3cccc(OCc4ncco4)c3)cc2)nc1C(N)=O` [Example 254, 4-[(aminocarbonyl)amino]-1-[3′-(1,3-oxazol-2-ylmethoxy)-1,1′-biphenyl-4-yl]-1H-pyrazole-3-carboxamide], the half-maximal inhibitory concentration (IC50) came to 0.352 µM.

In the case of `CC(C)NC(=O)c1cccc(-c2ccc(-n3cc(NC(N)=O)c(C(N)=O)n3)cc2)c1` [Example 148, 4-[(aminocarbonyl)amino]-1-{3′-[(isopropylamino)carbonyl]-1,1′-biphenyl-4-yl}-1H-pyrazole-3-carboxamide], the IC50 turned out to be 7.14 µM.

In the case of `NC(=O)Nc1cn(-c2ccc(SC3CCCC3)cc2)nc1C(N)=O` [Example 207, 1-(3-carbamoyl-1-(4-(cyclopentylthio)phenyl)-1H-pyrazol-4-yl)urea], the half-maximal inhibitory concentration (IC50) was determined as 1.32 µM.

For the compound `NC(=O)Nc1nn(-c2ccc(-c3ccc(F)cc3F)cc2)cc1C(N)=O` [Example 113], the IC50 was found to be 0.355 µM.

Turning to `CSc1ccc(-c2ccc(-n3cc(C(N)=O)c(NC(N)=O)n3)cc2)cc1` [Example 119], the IC50 was found to be 0.664 µM.

As to `NC(=O)Nc1nn(-c2ccc(-c3cccc(F)c3F)cc2)cc1C(N)=O` [Example 112], the 50% inhibitory concentration (IC50) came out at 1.99 µM.

Turning to `Cc1cc(-n2cc(NC(N)=O)c(C(N)=O)n2)ccc1-c1ccc(F)cc1OCC(N)=O` [Example 296, 1-(2′-carbamoylmethoxy-4′-fluoro-2-methyl-biphenyl-4-yl)-4-ureido-1H-pyrazole-3-carboxylic acid amide], the IC50 worked out at 0.656 µM.

`NC(=O)Nc1cn(-c2cccc(-c3ccc(C(F)(F)F)cc3)c2)nc1C(N)=O` [Example 368, 4-[(aminocarbonyl)amino]-1-[4′-(trifluoromethyl)-1,1′-biphenyl-3-yl]-1H-pyrazole-3-carboxamide]: the IC50 was greater than 20 µM.

For `CCN(CC)C(=O)c1ccc(-c2ccc(-n3cc(NC(N)=O)c(C(N)=O)n3)cc2)cc1` [Example 143, 4-[(aminocarbonyl)amino]-1-{4′-[(diethylamino)carbonyl]-1,1′-biphenyl-4-yl}-1H-pyrazole-3-carboxamide], the IC50 came to 3.31 µM.

For the compound `NC(=O)Nc1cn(-c2cccc(-c3ccc(O)cc3)c2)nc1C(N)=O` [Example 47, 4-[(aminocarbonyl)amino]-1-(4′-hydroxy-1,1 ′-biphenyl-3-yl)-1H-pyrazole-3-carboxamide], the IC50 worked out at 0.66 µM.

For `N#CCc1ccc(-c2ccc(-n3cc(NC(N)=O)c(C(N)=O)n3)cc2)cc1` [Example 37, 4-[(aminocarbonyl)amino]-1-[4′-(cyanomethyl)-1,1′-biphenyl-4-yl]-1H-pyrazole-3-carboxamide], the half-inhibitory concentration (IC50) turned out to be 0.79 µM.
